Our source for the Control value values is US9101137B2 (priority 2011, dated 2015).

Where two headings read alike, the source gives them in different places.

What all share (format): in vivo, Magnaporthe grisea
Assay [1] has as its system rice blast disease. Particulars: application concentration 10 ppm; rice (Nanatsuboshi), spray; lesion area after 6 days; average of duplicate.
In assay [2] the test system is rice blast disease. Particulars: application concentration 50 ppm; rice (Nanatsuboshi), spray; lesion area after 6 days.
Assay [3] has as its system rice blast disease. Particulars: application concentration 20 ppm; rice (Nanatsuboshi), spray; lesion area after 5 days.

`COC(=O)NCc1cc(/C(C)=N/OCc2cccc(C)n2)ccc1Cl` [Pyribencarb, pyribencarb]: the values for the Control value in the assay with rice blast disease [1], in the assay with rice blast disease [2] and in the assay with rice blast disease [3] were 18.8, 86.0 and 40.0, respectively.
